Results on one compound are retold here after US20190262457A1, “NOVEL ALKYLATING AGENT” (CHIBA-PREFECTURE, priority 2016, published 2019).

Data set [1] deals with RKO cells. Kind of data set: Cytotoxicity and IC50 comparison with CBI by WST assay, 48 hours. The note with it: WST-8. The class given is cell-based, human. Here is the method:
(§1) From the cell lines mentioned above, a large intestine cancer cell line SW480 was used as cells expressing PD-1, and a large intestine cancer cell line RKO was used as cells expressing PD-L1. An experiment was conducted to compare toxicity and IC50 between the PIP-drug conjugate compound CCC07-01 and the alkylating agent CBI used as a drug conjugate therein. The cells of each line were inoculated at 3000 cells/well to a 96-well microplate and cultured overnight. On the next day, the cells were treated with the PIP-CBI conjugate (CCC07-01) or CBI having a concentration of 0.1, 1, 10, 30, 100, 300, or 1000 nM (1 μM) for 48 hours. Then, WST-8 reagent was added to each well using Cell counting kit-8, and the mixture was reacted for 2 hours. Then, the cell count was calculated at a wavelength of 450 nm by the colorimetric analysis method using a microplate reader. The method for calculating the cell count involved: 1) obtaining the mean value of a medium alone, 2) subtracting the mean value of the medium from each well, 3) obtaining the mean value of DMSO, 4) dividing the medium mean value-subtracted value by the mean value of DMSO and then multiplying by 100, and 5) obtaining the mean value of each treatment group and a standard deviation, and preparing a graph. IC50 was calculated according to the following expression: IC50=10(LOG(A/B)×(50−C)/(D−C)+LOG(B) wherein A: a higher concentration of two concentrations sandwiching 50%, B: a lower concentration of two concentrations sandwiching 50%, C: the rate of inhibition at B, and D: the rate of inhibition at A.
A general note: Tetrazolium dyes change colour on reduction, which living cells bring about.

Data set [2] deals with SW480 cells. The description is as above. The class given is cell-based, human. The note with it: WST-8. On the procedure: as §1
The subject of data set [3] is PD-L1 gene. Kind of data set: Experiment to silence PD-L1 gene (RT-PCR / real-time PCR), CCC07-01. It counts as cell-based, human. The note with it: RKO cells, 10 nM, 24 hours. On the procedure:
RKO cells were cultured in a 6-well plate. On the next day, the cells were treated with 0, 1, 10, or 100 nM CCC07-01 for 24 hours. The cells were collected, and total RNA was extracted therefrom. The extraction employed RNeasy Plus Mini Kit (Qiagen N.V., CA). Next, cDNA was prepared by reverse transcription with the extracted RNA as a template according to Super Script VILO cDNA Synthesis kit (Invitrogen Corp., CA). RT-PCR was performed with the cDNA as a template under the following conditions: the conditions for PD-L1 involved denaturation at 95° C. and then 25 cycles each involving 95° C. for 30 seconds, 60° C. for 30 seconds, and 72° C. for 30 seconds, followed by elongation reaction at 72° C. for 5 minutes. For a control, RT-PCR of GAPDH was performed using the same cDNA as above. The conditions for GAPDH involved denaturation at 95° C. and then 22 cycles each involving 95° C. for 30 seconds, 55° C. for 30 seconds, and 72° C. for 30 seconds, followed by elongation reaction at 72° C. for 5 minutes.
Each RT-PCR product was electrophoresed on 2% agarose and then stained with ethidium bromide. qPCR was further performed. […] A relative expression level was quantified with GAPDH as a control.

Data set [4] is described as follows: log-P (octanol/water partition coefficient) by HPLC, indole/curcumin calibration curve. It counts as physicochemical. Conditions: calculated from indole/curcumin calibration curve, listed as CCC07-001. On the procedure: The polyamides were further analyzed for log-P (octanol/water partition coefficient) by HPLC. The retention times of 2 types of compounds (compound names) having a known log-P value and the polyamides were measured in the presence of a mixed solvent of 0.1% aqueous acetic acid solution and acetonitrile by HPLC using isocratic elution. […] The log-P values of the polyamides were calculated from the curve.

The test system of data set [5] is subcutaneously transplanted RKO tumor. Kind of data set: Tumor volume in RKO-transplanted humanized NSG mice. It counts as in vivo. Conditions: humanized NSG mouse. On the procedure: 1×10^7 cells of human PBMC (Precision Bioservices Inc.) were intravenously transplanted to each NSG mouse (NOD.Cg-Prkdc^scidI/2rg^tm1Wj1/SzJ; Charles River Laboratories Japan, Inc.) to prepare a humanized NSG mouse. One week after the PBMC transplantation, 1×10^7 RKO cells (ATCC) were subcutaneously transplanted to each humanized NSG mouse. After the transplantation, CCC07-01 was intravenously administered at 2.3 or 9.2 mg/kg to the mouse when tumorigenesis was able to be confirmed. The tumor size was measured over time, and the tumor volume (mm^3) was calculated according to the expression: Tumor volume=[…]. One week after the CCC07-01 administration, the spleen was harvested and homogenized in 2% FBS/PBS to prepare a cell suspension. The spleen cells were stained with a fluorescently labeled anti-human CD4 antibody, anti-human CD8 antibody and anti-human Foxp3 antibody and analyzed for the numbers of cytotoxic T cells (CD8-positive cells) and regulatory T cells (Treg: CD4-positive and Foxp3-positive cells) using a flow cytometer. Statistical processing was performed by the Mann-Whitney U test, and the significance level was set to P<0.05.

A word on the IC50: it is the midpoint of a concentration-inhibition curve. Higher therefore signals weaker potency in that assay.

Consider `CC(=O)Nc1cn(C)c(C(=O)Nc2cc(C(=O)Nc3cn(C)c(C(=O)Nc4cn(C)c(C(=O)NCCC(=O)Nc5cc(C(=O)Nc6cc(C(=O)NCCCC(=O)Nc7cc(C(=O)Nc8cn(C)c(C(=O)NCCC(=O)Nc9cc(C(=O)Nc%10cc(C(=O)Nc%11ccc%12[nH]c(C(=O)N%13CC(CCl)c%14c%13cc(O)c%13ccccc%14%13)cc%12c%11)n(C)c%10)n(C)c9)n8)n(C)c7)n(C)c6)n(C)c5)n4)n3)n(C)c2)n1` (stereo not drawn) [CCC07-01], for which the IC50 in data set [1] amounted to 4 nM; in data set [2], 11 nM. Further, in data set [3], the “expression of PD-L1” value is “markedly decreased”. Further, in data set [4], the logPow is recorded as 3.13. Also, the T/C ratio worked out at 56.0% in data set [5] (2.3 mg/kg intravenous) and 41.5% in data set [5] (9.2 mg/kg intravenous).
